Laboratory results as given in patent publication US10071051B2, “WT1 peptide cancer vaccine composition for transdermal administration” (NITTO DENKO CORPORATION, priority 2013, dated 2018).

What follows are molecules tested on IFN-γ-producing cells (antigen-specific cellular immunity) (assay: Mouse immunization test 3 (liquid formulation for external use), IFN-γ ELISPOT). Conditions: compared with acid-free comparative example.
Assay type: in vivo, C57BL/6 mouse
Procedure: (§1) Mouse immunization test was performed with the cream formulations using a model animal for immunological evaluation. Evaluation of the immunity induction level was performed by the ELISPOT method. Specifically, the hair of the back of the mouse was cut. The mouse was kept until it recovered from the skin damage due to the hair cutting. After that, a sample was applied to the back of the mouse for the predetermined time, and then removed. Then, the mouse was kept for predetermined days and the level of the antigen-specific cellular immunity was evaluated. After predetermined days from the application of the sample, the spleen was isolated and a spleen cell suspension was prepared. Spleen cells (3×10^6 cells/well) and the antigen peptide (100 μM) together with the culturing medium were placed into a well of an ELISPOT plate on which an anti-mouse IFN-γ antibody had been immobilized. The plate was cultured for 20 hours under the condition of 37° C. and 5% CO2. The number of the spots representing IFN-γ-producing cells (spot number/3×10^6 cells) was evaluated by the ELISPOT method. In all cases, 4 mg of the cream formulation was applied once for 24 hours and the spleen was isolated 6 days after the completion of the application.
Mouse Immunization Test 3 (Liquid Formulation for External Use)
Using a liquid formulation for external use produced as described above, mouse immunization test was performed in the same manner as that in the mouse immunization test 1. The dose was 67 μL as described above. The liquid formulation was applied once for 24 hours/week and a spleen was isolated 6 days after completion of the application. The mouse used was a C57BL/6.
In the case of `O=C(O)/C=C\C(=O)O` [maleic acid], the “cellular immunity induction, in words (acid added to liquid formulation)” value is reported as “effective”. `O=C(O)CC(O)(CC(=O)O)C(=O)O` [citric acid] was tested, and the “cellular immunity induction, in words (acid added to liquid formulation)” value was “effective”. For `O=C(O)CC(O)C(=O)O` (racemic) [malic acid], the “cellular immunity induction, in words (acid added to liquid formulation)” value was “effective”. With `O=C(O)c1ccccc1O` [salicylic acid] the “cellular immunity induction, in words (acid added to liquid formulation)” value was “effective”. With `CC(O)C(=O)O` (stereo not drawn) [lactic acid] the “cellular immunity induction, in words (acid added to liquid formulation)” value was “effective”. For `CS(=O)(=O)O` [methanesulfonic acid], the “cellular immunity induction, in words (acid added to liquid formulation)” value was “effective”.

The molecules below were run on IFN-γ-producing cells (antigen-specific cellular immunity) (assay: Mouse immunization test 2 (tape preparation), IFN-γ ELISPOT). Conditions: compared with acid-free comparative example.
Assay type: in vivo, genetically modified mouse
Procedure: as §1
Mouse Immunization Test 2 (Tape Preparation)
Using thus obtained tape preparation, mouse immunization test 2 was performed in the same manner as in the mouse immunization test 1. The preparation was applied once for 24 hours/week and a spleen was isolated 6 days after administration. Genetically modified mouse which can be used to evaluate the cellular immunity inducing ability of the HLA-A*0201 type MHC restricted peptide was used as model animal for immunological evaluation.
In Example 69, the skin was injured with a microcutter (MICRO FEATHER No. 7330G, manufactured by FEATHER) before the application of the preparation.
In the case of `CCCCCCCCCCCC(=O)O` [lauric acid], the “cellular immunity induction, in words (acid blended in tape preparation)” value is reported as “excellent results”. With `CCCCCCCCCCCCCC(=O)O` [myristic acid] the “cellular immunity induction, in words (acid blended in tape preparation)” value was “excellent results”. `CC(O)C(=O)O` (stereo not drawn) [lactic acid] was tested, and the “cellular immunity induction, in words (acid blended in tape preparation)” value was “excellent results”. `CC(C)CCCCCCCCCCCCCCC(=O)O` [isostearic acid] was tested, and the “cellular immunity induction, in words (acid blended in tape preparation)” value was “excellent results”. In the case of `CCCCCCCCCC(=O)O` [decanoic acid], the “cellular immunity induction, in words (acid blended in tape preparation)” value is reported as “strong cellular immunity was induced”. For `CCCCCCCC/C=C\CCCCCCCC(=O)O` [oleic acid], the “cellular immunity induction, in words (acid blended in tape preparation)” value was “excellent results”.
